Test results reported in publication PMC7682835, “A novel G protein-coupled receptor for starfish gonadotropic hormone, relaxin-like gonad-stimulating peptide” (PLoS ONE, 2020).

What was measured:
[1] = test system: starfish; details: injection of 1-MeAde compared with RGP; cited from earlier work
Source text: (§1) Although RGP is the primary mediator of oocyte maturation and ovulation, the effect of RGP is indirect. RGP secreted by radial nerve cords induces ovarian follicle cells to produce 1-methyladenine (1-MeAde) as a maturation-inducing hor ...

[2] = test system: Patiria pectinifera ovarian follicle cells; test: Intracellular cAMP production in follicle cells; type: cell-based; details: follicle cells (ten million in 1 ml ASW), 2 h at 20°C; intracellular cAMP by EIA; three independent samples
Procedure: (§2) Ten million follicle cells were incubated for 2 h at 20°C in 1 ml of ASW in the presence of PpeRGP or AamRGP, with occasional shaking. The cell suspension was then centrifuged at 1,000 g for 1 min and quickly frozen in liquid nitrogen. Supernatants were analyzed for the amount of 1-MeAde released from follicle cells. The concentration of 1-MeAde was determined by a method previously described, using authentic 1-MeAde as the standard reference. The frozen follicle cells were analyzed for the amount of intracellular cAMP using a BIOTRAK cAMP EIA system (GE Healthcare). The mean was determined from three separate assays using three different animals and standard error of the mean (SEM).
(§3) Fig 4 Effect of RGP on 1-MeAde and cAMP production in Patiria pectinifera ovarian follicle cells. (A) Amino acid alignments of A- and B-chains in P. pectinifera (PpeRGP) and Asterias amurensis (AamRGP). To illustrate the conserved features, the amino acid types are color coded according to their properties, with basic residues in blue (Arg, Lys and His), acidic residues in red (Glu and Asp), hydrophobic residues in green (Ala, Val, Ile, Phe, Trp, Tyr, Pro and Met), hydrophilic in black (Ser, Thr, Asn and Gln) and glycine in light blue. The cysteine residues are highlighted in yellow and disulfide bonds are shown with solid dark red lines. […] Intracellular cAMP content was determined by EIA. […]

[3] = test system: PpeRGPR; test: Intracellular calcium mobilization (Fluo-8) in Sf9 cells transfected with Gαq16-fused PpeRGPR; type: cell-based, Patiria pectinifera; details: for Effect on calcium signaling (result in words): Fluo-8, 490/514 nm
Procedure: Functional characterization of PpeRGPR was performed using Sf9 cells and baculovirus-based expression methods, as previously reported. The open reading frame (ORF) of human Gαq16 protein (OriGene, Rockville, MD, USA), which couples with GPCRs and triggers intracellular calcium mobilization upon binding of a specific ligand [33] was subcloned into the XbaI site of the pFastbacI plasmid (Invitrogen, Waltham, MA, USA). PpeRGPR was then cloned into the NotI/XbaI site of the Gαq16-ligated pFastbacI plasmids. Transformation of competent cells with the PpeRGPR-Gαq16-pFastbacI plasmid and the resulting bacmid isolation was performed according to the manufacturer’s instructions for the Bac-to-Bac system (Thermo Fisher Scientific, Waltham, MA, USA).
Sf9 cells (Thermo Fisher Scientific) were grown in Sf900 II (Thermo Fisher Scientific) containing 10% FBS (Sigma-Aldrich) at 28°C. PpeRGPR-Gαq16-recombinant baculoviruses were prepared from Sf9 cells transfected with the above bacmids using Cellfectin II (Thermo Fisher Scientific), titrated, isolated, and transiently transfected into Sf9 cells, as previously described. Sf9 cells were plated at 1.2×10^5 cells/well (on a 96-well plate) or 2.4×10^5 cells (on a glass bottom dish) prior to transfection. Forty-eight hours after transfection, Sf9 cells were loaded for 30 min with 2.5 μM of Fluo-8 AM (AAT Bioquest, Sunnyvale, CA, USA) diluted in loading buffer [HBSS supplemented with 1.25 mM probenecid and 0.04% (wt/vol) pluronic F-127] [32]. Cell membrane expression of PpeRGPR-fused human Gαq16 was confirmed by immunostaining using the anti-Gαq16 antibody (OriGene, TA318890) in comparison with non-transfected Sf9 cells (wild type). Dose-dependent responses to PpeRGP or AamRGP were measured using a FlexStation II-automated apparatus (Molecular Devices, San Jose, CA, USA) at the excitation/emission wavelengths of 490/514 nm. Calcium accumulation data were analyzed using Prism v6 (GraphPad Software, San Diego, CA, USA) to fit to a sigmoidal concentration-response curve, as previously described. The dose-response curve was statistically evaluated by analysis of variance. Significant activation of PpeRPGR by PpeRGP compared with AamRGP at each concentration was also examined by Student t test.
Fig 2 Intracellular calcium mobilization in Sf9 cells. (A, B) Sf9 cells were transfected with Gαq16- fused PpeRGPR-recombinant baculovirus (A) and non-transfected Sf9 cells were used as wild type controls (B). Expression of PpeRGPR in Sf9 cells was examined by immunostaining using an anti-Gαq16 antibody. Immunoreactivity was observed using a fluorescence microscope after incubation with an Alexa Fluor 488-conjugated secondary antibody. […] Scale bars represent 50 μm. […] Each dose-response curve was statistically evaluated by analysis of variance. […]

[4] = test system: Patiria pectinifera ovarian follicle cells; test: 1-MeAde production by follicle cells; type: cell-based; details: follicle cells (ten million in 1 ml ASW), 2 h at 20°C; 1-MeAde released into medium by biological assay; three independent samples
Procedure: as §2, §3

[5] = test system: PpeRGPR in P. pectinifera ovarian follicle cells; test: Competitive binding assay, 125I-PpeRGP versus unlabeled RGP, follicle cell homogenates; parameters: species or system Patiria pectinifera; details: 2 h at 20°C, four separate assays; for Effect of unlabeled peptide on 125I-PpeRGP binding (result in words): follicle cell homogenates (25 μg of protein), 125I-PpeRGP about 100,000 cpm, final concentration 1.1 pM, total volume 0.5 ml, four animals
Procedure: Follicle cells were homogenized using a Teflon homogenizer in 25 mM Tris-HCl (pH 7.4) containing 10 mM MgCl2. Protein concentrations were measured using a Bio-Rad protein assay kit (Bio-Rad Laboratories, Hercules, CA, USA).
The radioiodination of PpeRGP with Na^125I (carrier free; GE Healthcare, Buckinghamshire, UK) was carried out at room temperature in accordance with the modified lactoperoxidase method, as described previously. The specific activity of radioiodinated PpeRGP (^125I-PpeRGP) was estimated to be 150 μCi/μg.
The specificity of RGP binding was examined using whole homogenates of follicle cells. Preparations were adjusted to yield a protein concentration of 10 mg/ml with the homogenizing medium plus 0.1% (wt/vol) BSA, and stored at -80°C until use. The binding assay was performed using competition experiments between labeled PpeRGP and unlabeled PpeRGP or AamRGP, as described previously. Data were obtained from four separate assays using follicle cells from ovaries of four different animals.
Fig 3 Competitive inhibition curves of ^125I-PpeRGP binding to Patiria pectinifera ovarian follicle cells in the presence of unlabeled PpeRGP or AamRGP. P. pectinifera ovarian follicle cell homogenates (25 μg of protein) were incubated for 2 h at 20°C in assay buffer containing ^125I-PpeRGP (about 100,000 cpm; 2.087 pg/[…]; total volume 0.5 ml, final concentration 1.1 pM) in the presence of serially diluted unlabeled PpeRGP (●) or AamRGP (○). Specific binding was obtained by subtracting nonspecific binding from total binding. Data were obtained from four separate assays using follicle cells from ovaries of four different animals.

[6] = test system: Patiria pectinifera ovarian follicle cells; details: isolated follicle cells cultured with PpeRGP, cited from earlier work
Source text: However, the RGP receptor (RGPR) remains to be identified in s ...

[7] = test system: membrane preparation of ovarian follicle cells of P. pectinifera; details: cited from earlier work
[8] = test system: P. pectinifera ovaries; details: approximately; in vitro spawning; read-out: Median effective concentration of in vitro spawning; cited from earlier work
Source text: Since cDNA encoding the PpeRGPR was cloned from P. pectinifera follicle cells (Fig 1), PpeRGPR should be expressed on follicle cell surface. […] In contrast to PpeRGP, AamRGP had no effects on binding to P. pectinifera follicle cells (Fig 3), as well as 1-MeAde and cAMP production (Fig 4B) or calcium signals in PpeRGPR-expressing Sf9 cells (Fig 2C). […] Based on 3D structural models, P^A17 of PpeRGP and R^A18 of AamRGP are located near their respective B-cha ...

[9] = test system: ovarian fragments of P. pectinifera; details: synthetic PpeRGP, within 30 min of incubation; cited from earlier work
Source text: as §1

[10] = test system: males and females of P. pectinifera; details: injection of synthetic PpeRGP into males and females with fully-grown testes and ovaries; cited from earlier work
Source text: as §1

[11] = Sf9 cells with Gαq16-fused PpeRGPR, three to seven independent samples

Row | Molecule | Interval preceding the discharge of gametes after injection (result in words) [1] | Effect on cAMP production (result in words) [2] | Effect on calcium signaling (result in words) [3, 11] | Effect on 1-MeAde production (result in words) [4] | Effect of unlabeled peptide on 125I-PpeRGP binding (result in words) [5] | EC50 ([3]; Sf9 cells transfected with Gαq16-fused PpeRGPR baculovirus, 48 h, Fluo-8 AM 2.5 μM, FlexStation II, 490/514 nm, sigmoidal fit, three to seven independent samples, read-out: EC50, calcium signaling) [nM] | Concentration above which calcium signaling is significantly increased ([3]; Sf9 cells with Gαq16-fused PpeRGPR, Fluo-8) | 1-MeAde production in isolated follicle cells (result in words) ([6]; coinciding with cAMP increase) | cAMP production in isolated follicle cells (result in words) [6] | Binding to follicle cell membrane preparation (result in words) [7] | EC50 [8] [nM] | Induction of oocyte maturation and ovulation (result in words) [9] | Spawning behavior and spawning after injection (result in words) [10] | Kd ([5]; Scatchard plot analysis, follicle cell homogenates, 125I-PpeRGP, read-out: Dissociation constant (Kd)) [nM]
1 | Cn1cnc2ncnc-2c1N [1-MeAde, 1-methyladenine] | almost equal to those found after injection of RGP |  |  |  |  |  |  |  |  |  |  |  |  | 
2 | relaxin-like gonad-stimulating peptide of Asterias amurensis [AamRGP, reference compound] |  | no effects | no effect on calcium signaling | no effects | no effect on ^125I-PpeRGP binding |  |  |  |  |  |  |  |  | 
3 | relaxin-like gonad-stimulating peptide of Patiria pectinifera [PpeRGP] |  |  | significantly increased calcium signaling at concentrations above 1 nM in a dose-dependent manner |  | decreased in a dose-dependent manner | 11.1 | above 1 nM | increase | dose-related increase | binds specifically | 1 to 2 | induced oocyte maturation and ovulation | spawning behavior and subsequent spawning were observed | ~0.67
